Converted amounts (≈) assume the structure as drawn. Like-named read-outs stand apart in the source and are kept apart here.
Tested on: Saccharomyces cerevisiae wild type BY4741
Assay: MIC determination in Saccharomyces cerevisiae wild type BY4741
Assay type: cell-based
Description: In Vitro Antifungal Activity. MIC values for various strains were determined in accordance with the standard protocol from the National Committee of Clinical Laboratory Standards but using YEPD liquid medium instead of RPMI-1640 medium (National Committee of Clinical Laboratory Standards (Reference Method for Broth Dilution Antifungal Susceptibility Testing of Yeast, M27-A2, Approved Standard-Second Edition, Volume 22, Number 15, 1995). AmB was used as a reference. The strains were cultivated overnight in 5 mL YEPD liquid medium at 30 to 37° C. (30° C. for the strain BY4741; 37° C. for the strain DSY1764) with constant shaking. The saturated cultures were diluted to an ODB600 of 0.1 (3×10P^7 cells/mL). Using 24 wells plate, each well was prepared by adding 1% (12 μL) of DMSO solution of the tested polyene macrolide with 1% (12 μL) yeast cells solution and completed with YEPD (1.176 mL). The plates were sealed with Parafilm and then incubated for 18 to 36 hours at 30 to 37° C. (18 hours at 30° C. for the strain BY4741; 36 hours at 37° C. for the strain DSY1764). The optical density was read at 600 nm using 1.5 mL cuvettes. The MIC value was defined as the drug concentration needed to inhibit growth, less than 5% compared to a drug-free culture.
MIC values of various polyene macrolides of the invention in Saccharomyces cerevisiae wild type BY4741, a derivative of S288C, (with AmB as a reference) were determined as described hereinabove.
Based on the remarkable performance observed with the Diamine-AmB conjugate similar modifications of the aminosugar moiety were made on other polyene macrolides, such as for example Nystatin (1b) and Pimaricin (1c). The antifungal activity of these nystatin and pimaricin conjugates bearing two aminopropyl side chains was measured using Saccharomyces cerevisiae wild type BY4741.

[1] = Table 5, Saccharomyces cerevisiae wild type BY4741, read-out: MIC
[2] = Saccharomyces cerevisiae wild type BY4741, YEPD liquid medium, 18 hours at 30° C., read-out: MIC
[3] = Saccharomyces cerevisiae wild type BY4741

Row | Structure (SMILES) | MIC [1] [µM] | MIC (Saccharomyces cerevisiae, 18 h) [µM] | further results
1 | C[C@@H]1[C@H](O)[C@@H](C)/C=C/C=C/CC/C=C/C=C/C=C/C=C/C(O[C@H]2O[C@H](C)[C@@H](O)[C@H](N)[C@@H]2O)CC2O[C@](O)(CC(O)C(O)CCC(O)CC(O)CC(O)CC(=O)O[C@H]1C)CC(O)C2C(=O)O (stereo partly drawn) [1b (Nystatin), Nystatin, reference compound] | 3.0 (≈ 2.78 µg/mL) |  | 
2 | C[C@@H]1[C@H](O)[C@@H](C)/C=C/C=C/C=C/C=C/C=C/C=C/C=C/[C@H](OC2O[C@H](C)[C@@H](O)[C@H](N(CCN)CCN)[C@@H]2O)CC2O[C@](O)(C[C@@H](O)C[C@@H](O)[C@H](O)CC[C@@H](O)C[C@@H](O)CC(=O)O[C@H]1C)C[C@H](O)[C@H]2C(=O)O (stereo partly drawn) [compound 2, N,N-Di-(2-aminoethyl)-AmB] |  | 0.25 (≈ 0.253 µg/mL) | 
3 | C[C@@H]1[C@H](O)[C@@H](C)/C=C/C=C/C=C/C=C/C=C/C=C/C=C/[C@H](O[C@@H]2O[C@H](C)[C@@H](O)[C@H](N3CCN(C(=O)CCCCCNC(=O)C(N)CCCCN)CC3)[C@@H]2O)CC2O[C@](O)(C[C@@H](O)C[C@@H](O)[C@H](O)CC[C@@H](O)C[C@@H](O)CC(=O)O[C@H]1C)C[C@H](O)[C@H]2C(=O)O (stereo partly drawn) [compound 7, 2,6-Diamino-N-[6-oxo-6-(piperazin-1-yl)-hexyl]-hexanamide-AmB] |  |  | MIC [2]: 0.1 µM (≈ 0.123 µg/mL)
4 | C[C@@H]1[C@H](O)[C@@H](C)/C=C/C=C/CC/C=C/C=C/C=C/C=C/[C@H](O[C@@H]2O[C@H](C)[C@@H](O)[C@H](N(CCCN)CCCN)[C@@H]2O)CC2O[C@](O)(C[C@@H](O)[C@H](O)CC[C@@H](O)C[C@@H](O)C[C@@H](O)CC(=O)O[C@H]1C)C[C@H](O)[C@H]2C(=O)O [compound 17, N,N-Di-(3-aminopropyl)-Nystatin] |  |  | MIC (Saccharomyces cerevisiae): 0.05 µM (≈ 0.052 µg/mL); antifungal activity compared with the native compounds 1b and 1c [3]: significantly more active
5 | C[C@@H]1C/C=C/C=C/C=C/C=C/[C@H](O[C@@H]2O[C@H](C)[C@@H](O)[C@H](N)[C@@H]2O)C[C@@H]2O[C@](O)(C[C@@H](O)C[C@H]3O[C@@H]3/C=C/C(=O)O1)C[C@H](O)[C@H]2C(=O)O [1c (Pimaricin), Pimaricin, reference compound] | 4 (≈ 2.66 µg/mL) |  | 
6 | C[C@@H]1C/C=C/C=C/C=C/C=C/[C@H](O[C@@H]2O[C@H](C)[C@@H](O)[C@H](N(CCCN)CCCN)[C@@H]2O)C[C@@H]2O[C@](O)(C[C@@H](O)C[C@H]3O[C@@H]3/C=C/C(=O)O1)C[C@H](O)[C@H]2C(=O)O [compound 18, N,N-Di-(3-aminopropyl)-Pimaricin] | 0.3 (≈ 0.234 µg/mL) |  | antifungal activity compared with the native compounds 1b and 1c [3]: significantly more active
7 | C[C@@H]1[C@H](O)[C@@H](C)/C=C/C=C/C=C/C=C/C=C/C=C/C=C/[C@H](O[C@@H]2O[C@H](C)[C@@H](O)[C@H](N3CCN(C(=O)CCCCCNC(=O)C(N)CCCCNC(=N)N)CC3)[C@@H]2O)CC2O[C@](O)(C[C@@H](O)C[C@@H](O)[C@H](O)CC[C@@H](O)C[C@@H](O)CC(=O)O[C@H]1C)C[C@H](O)[C@H]2C(=O)O (stereo partly drawn) [compound 8, 2-Amino-6-guanidine-N-[6-oxo-6-(piperazin-1-yl)-hexyl]-hexanamide-AmB] |  |  | MIC [2]: 0.1 µM (≈ 0.128 µg/mL)
8 | C[C@@H]1[C@H](O)[C@@H](C)/C=C/C=C/C=C/C=C/C=C/C=C/C=C/[C@H](OC2O[C@H](C)[C@@H](O)[C@H](N(CCCO)CCCO)[C@@H]2O)CC2O[C@](O)(C[C@@H](O)C[C@@H](O)[C@H](O)CC[C@@H](O)C[C@@H](O)CC(=O)O[C@H]1C)C[C@H](O)[C@H]2C(=O)O (stereo partly drawn) [compound 4, N,N-Di-(3-hydroxypropyl)-AmB] |  | 0.5 (≈ 0.52 µg/mL) | 
9 | C[C@@H]1[C@H](O)[C@@H](C)/C=C/C=C/C=C/C=C/C=C/C=C/C=C/[C@H](O[C@@H]2O[C@H](C)[C@@H](O)[C@H](N(CC(N)CCCCN)CC(N)CCCCN)[C@@H]2O)CC2O[C@](O)(C[C@@H](O)C[C@@H](O)[C@H](O)CC[C@@H](O)C[C@@H](O)CC(=O)O[C@H]1C)C[C@H](O)[C@H]2C(=O)O (stereo partly drawn) [compound 5, N,N-Di-(2,6-diaminohexyl)-AmB] |  | 0.08 (≈ 0.0922 µg/mL) | 
10 | C[C@@H]1[C@H](O)[C@@H](C)/C=C/C=C/C=C/C=C/C=C/C=C/C=C/[C@H](O[C@@H]2O[C@H](C)[C@@H](O)[C@H](N(CCNC(=N)N)CCNC(=N)N)[C@@H]2O)CC2O[C@](O)(C[C@@H](O)C[C@@H](O)[C@H](O)CC[C@@H](O)C[C@@H](O)CC(=O)O[C@H]1C)C[C@H](O)[C@H]2C(=O)O [compound 6, N,N-Di-(2-ethylguanidine)-AmB] |  | 0.1 (≈ 0.109 µg/mL) | 

Reference: patent publication US20090186838A1, “Amphotericin Derivatives” (Eidgenössische Technische Hochschule Zürich, priority 2006, published 2009)
